Data: patent US7432283B2, “Heterocyclic GABAA subtype selective receptor modulators” (Roche Palo Alto LLC, priority 2004, dated 2008)

Row | melting point [°C] | SMILES
1 | 96.5 to 97.5 | Cn1nc2c(c1Cl)CCCN2c1ccc(Cl)cc1 [Compound 1-10, 3-chloro-7-(4-chloro-phenyl)-2-methyl-4,5,6,7-tetrahydro-2H-pyrazolo [3,4-b]pyridine]
2 | 103 to 109 | Cc1cc(C)c(N2CCCc3c2[nH]n(C)c3=O)c(Cl)c1 [Compound 1-15, 7-(2-Chloro-4,6-dimethyl-phenyl)-2-methyl-1,2,4,5,6,7-hexahydro-pyrazolo[3,4-b]pyridin-3-one]
3 | 129 to 130 | CCCC(O)(CCC)c1c2c(nn1C)N(c1c(C)cc(C)cc1Cl)CCC2 [Compound 2-1, 4-[7-(2-Chloro-4,6-dimethylphenyl)-2-methyl-4,5,6,7-tetrahydro-2H-pyrazolo[3,4-b]pyridin-3-yl]heptan-4-ol]
4 | 87 to 91.1 | CCCC(O)(CCC)c1c2c(nn1C)N(c1c(C)cc(C)cc1C)CCCC2 [Compound 2-4, 4-[2-Methyl-8-(2,4,6-trimethylphenyl)-2,4,5,6,7,8-hexahydro-1,2,8-triazaazulen-3-yl]heptan-4-ol]
5 | 164.2 to 166.8 | Cn1nc2c(c1-c1cncnc1)CCCN2c1ccc(Cl)cc1Cl [Compound 9-2, 7-(2,4-Dichloro-phenyl)-2-methyl-3-pyrimidin-5-yl-4,5,6,7-tetrahydro-2H-pyrazolo[3,4-b]pyridine]
6 | 160.1 to 165.6 | CCCC(O)(c1nccs1)c1c2c(nn1C)N(c1c(C)cc(C)cc1C)CCC2 (stereo not shown) [Compound 2-8, 1-[2-Methyl-7-(2,4,6-trimethylphenyl)-4,5,6,7-tetrahydro-2H-pyrazolo[3,4-b]pyridin-3-yl]-1-thiazol-2-ylbutan-1-ol]
7 | 247.8 to 248.3 | Cc1cc(C)c(N2CCCc3c2nn(C)c3C(=O)O)c(Cl)c1 [Compound 5-1, 7-(2-Chloro-4,6-dimethylphenyl)-2-methyl-4,5,6,7-tetrahydro-2H-pyrazolo[3,4-b]pyridine-3-carboxylic acid]
8 | 108.3 to 111 | CCCN(CCCC#N)c1c2c(nn1C)N(c1c(C)cc(C)cc1C)CCC2 [Compound 5-48, 4-{[2-Methyl-7-(2,4,6-trimethyl-phenyl)-4,5,6,7-tetrahydro-2H-pyrazolo [3,4-b]pyridin-3-yl]-propyl-amino}-butyronitrile]
9 | 126 to 127.9 | CCCC(O)(CCC)c1c2c(nn1C)N(c1c(C)cc(C)cc1C)CCC2 [Compound 2-2, 4-[2-Methyl-7-(2,4,6-trimethylphenyl)-4,5,6,7-tetrahydro-2H-pyrazolo[3,4-b]pyridin-3-yl] heptan-4-ol]
10 | 87.6 to 90.3 | CCCC(c1cccs1)c1c2c(nn1C)N(c1c(C)cc(C)cc1C)CCC2 (stereo not shown) [Compound 4-3, 2-Methyl-3-(1-thiophen-2-ylbutyl)-7-(2,4,6-trimethylphenyl)-4,5,6,7-tetrahydro-2H-pyrazolo[3,4-b]pyridine]
11 | 234 to 236 | Cc1cc(C)c(N2CCCc3c2nn(C)c3N)c(Cl)c1 [Compound 5-45, 7-(2-Chloro-4,6-dimethyl-phenyl)-2-methyl-4,5,6,7-tetrahydro-2H-pyrazolo[3,4-b]pyridin-3-ylamine]
12 | 90 to 91 | CCCN(CCC)c1c2c(nn1C)N(c1c(C)cc(C)cc1Cl)CCC2 [Compound 5-5, [7-(2-Chloro-4,6-dimethylphenyl)-2-methyl-4,5,6,7-tetrahydro-2H-pyrazolo[3,4-b]pyridin-3-yl]dipropylamine]
13 | 59 to 63 | Cc1cc(C)c(N2CCCc3c2nn(C)c3-c2ccccc2C(F)(F)F)c(C)c1 [Compound 9-1, 2-Methyl-3-(2-trifluoromethyl-phenyl)-7-(2,4,6-trimethyl-phenyl)-4,5,6,7-tetrahydro-2H-pyrazolo[3,4-b]pyridine]
14 | 181.6 to 183 | Cc1cc(C)c(N2CCCc3c2nn(C)c3S(C)(=O)=O)c(C)c1 [Compound 2-21, 3-Methanesulfonyl-2-methyl-7-(2,4,6-trimethyl-phenyl)-4,5,6,7-tetrahydro-2H-pyrazolo[3,4-b]pyridine]
15 | 98 to 100.5 | Cn1[nH]c2c(c1=O)CCCN2c1ccc(Cl)cc1Cl [Compound 1-16, 7-(2,4-dichloro-phenyl)-2-methyl-1,2,4,5,6,7-hexahydro-pyrazolo[3,4-b]pyridin-3-one]
16 | 219.5 to 221.6 | Cn1[nH]c2c(c1=O)CCCN2c1ccc(Cl)cc1 [Compound 1-17, 7-(4-chloro-phenyl)-2-methyl-1,2,4,5,6,7-hexahydro-pyrazolo[3,4-b]pyridin-3-one]
17 | 143.3 to 144.9 | CNc1c2c(nn1C)N(c1c(C)cc(C)cc1C)CCC2 [Compound 5-49, Methyl-[2-methyl-7-(2,4,6-trimethyl-phenyl)-4,5,6,7-tetrahydro-2H-pyrazolo[3,4-b]pyridin-3-yl]-amine]
18 | 89 to 90.1 | CO/N=C/c1c2c(nn1C)N(c1c(C)cc(C)cc1C)CCC2 [Compound 6-5, 2-Methyl-7-(2,4,6-trimethyl-phenyl)-4,5,6,7-tetrahydro-2H-pyrazolo[3,4-b] pyridine-3-carbaldehyde O-methyl-oxime]
19 | 103.6 to 104.8 | Cc1cc(C)c(N2CCOc3cn(C)nc32)c(C)c1 [Compound 9-5, 2-Methyl-7-(2,4,6-trimethyl-phenyl)-2,5,6,7-tetrahydro-pyrazolo[4,3-b][1,4]oxazine]

Row | melting point [°C] | SMILES
20 | 163.1 to 174.4 | Cc1cc(C)c(N2CCCc3c2nn(C)c3C(O)c2ccco2)c(C)c1 (stereo not shown) [Compound 2-9, Furan-2-yl[2-methyl-7-(2,4,6-trimethyl-phenyl)-4,5,6,7-tetrahydro-2H-pyrazolo[3,4-b]pyridin-3-yl]methanol]
21 | 79.7 to 81.4 | CCc1c2c(nn1C)N(c1c(C)cc(C)cc1C)CCC2 [Compound 4-5, 3-Ethyl-2-methyl-7-(2,4,6-trimethyl-phenyl)-4,5,6,7-tetrahydro-2H-pyrazolo[3,4-b]pyridine]
22 | 90.3 to 91.7 | CSc1c2c(nn1C)N(c1c(C)cc(C)cc1C)CCC2 [Compound 2-20, 2-Methyl-3-methylsulfanyl-7-(2,4,6-trimethyl-phenyl)-4,5,6,7-tetrahydro-2H-pyrazolo[3,4-b]pyridine]
23 | 123.5 to 125.5 | Cn1nc2c(c1-c1ccncc1)CCCN2c1ccc(Cl)cc1Cl [Compound 9-3, 7-(2,4-Dichloro-phenyl)-2-methyl-3-pyridin-4-yl-4,5,6,7-tetrahydro-2H-pyrazolo[3,4-b]pyridine]
24 | 120.6 to 122 | CCCN(CC1CC1)C(=O)c1c2c(nn1C)N(c1c(C)cc(C)cc1Cl)CCC2 [Compound 7-1, 7-(2-Chloro-4,6-dimethylphenyl)-2-methyl-4,5,6,7-tetrahydro-2H-pyrazolo[3,4-b]pyridine-3-carboxylic acidcyclopropylmethylpropyl amide]
25 | 96 to 98.1 | CCCC(CCC)c1c2c(nn1C)N(c1c(C)cc(C)cc1C)CCCC2 [Compound 4-4, 2-Methyl-3-(1-propylbutyl)-8-(2,4,6-trimethylphenyl)-2,4,5,6,7,8-hexahydro-1,2,8-triazaazulene]
26 | 158.9 to 161.6 | Cc1cc(C)c(N2CCCc3c2nn(C)c3C(C)(C)O)c(C)c1 [Compound 2-16, 2-[7-(2,4,6-trimethyl-phenyl)-2-methyl-4,5,6,7-tetrahydro-2H-pyrazolo[3,4-b]pyridin-3-yl]-propan-2-ol]
27 | 88.9 to 91.5 | CCCN(CCC)c1c2c(nn1C)N(c1c(C)cc(C)cc1C)CCC2 [Compound 5-35, [2-Methyl-7-(2,4,6-trimethylphenyl)-4,5,6,7-tetrahydro-2H-pyrazolo[3,4-b]pyridin-3-yl]-dipropylamine]
28 | 208.8 to 210.9 | Cc1cc(C)c(N2CCCc3c2nn(C)c3N)c(C)c1 [Compound 5-52, 2-methyl-7-(2,4,6-trimethyl-phenyl)-4,5,6,7-tetrahydro-2H-pyrazolo[3,4-b]pyridin-3-ylamine]
29 | 256.8 to 258 | Cc1cc(C)c(N2C(=O)CCc3c2nn(C)c3Br)c(C)c1 [Compound 9-4, 3-Bromo-2-methyl-7-(2,4,6-trimethyl-phenyl)-2,4,5,7-tetrahydro-pyrazolo[3,4-b]pyridin-6-one]
30 | 105.9 to 108.9 | Cc1cc(C)c(N2CCCc3c2nn(C)c3C(C)C)c(C)c1 [Compound 4-7, 3-Isopropyl-2-methyl-7-(2,4,6-trimethyl-phenyl)-4,5,6,7-tetrahydro-2H-pyrazolo[3,4-b]pyridine]
31 | 120.5 to 123.5 | Cc1cc(C)c(N2CCCc3c2nn(C)c3C=O)c(C)c1 [Compound 2-24, 2-Methyl-7-(2,4,6-trimethyl-phenyl)-4,5,6,7-tetrahydro-2H-pyrazolo[3,4-b] pyridine-3-carbaldehyde]
32 | 101.9 to 103.9 | CC/C=C(\CCC)c1c2c(nn1C)N(c1c(C)cc(C)cc1C)CCCC2 [Compound 3-4, 2-Methyl-3-(1-propylbut-1-enyl)-8-(2,4,6-trimethylphenyl)-2,4,5,6,7,8-hexahydro-1,2,8-triazaazulene]
33 | 94.9 to 100.9 | CCCC(O)(c1nccn1CC)c1c2c(nn1C)N(c1c(C)cc(C)cc1C)CCC2 (stereo not shown) [Compound 2-11, 1-(1-Ethyl-1H-imidazol-2-yl)-1-[2-methyl-7-(2,4,6-trimethylphenyl)-4,5,6,7-tetrahydro-2H-pyrazolo[3,4-b]pyridin-3-yl]butan-1-ol]
34 | 121.4 to 122.6 | CCCC(O)(CCC)c1c2c(nn1C)N(c1ccc(Cl)cc1Cl)CCC2 [Compound 2-5, 4-[7-(2,4-Dichlorophenyl)-2-methyl-4,5,6,7-tetrahydro-2H-pyrazolo [3,4-b]pyridin-3-yl]heptan-4-ol]
35 | 56.7 to 64 | CC(O)c1c2c(nn1C)N(c1ccc(Cl)cc1Cl)CCC2 (stereo not shown) [Compound 2-14, 1-[7-(2,4-Dichloro-phenyl)-2-methyl-4,5,6,7-tetrahydro-2H-pyrazolo[3,4-b]pyridin-3-yl]-ethanol]
36 | 96.5 to 102.5 | CCC(COC)Nc1c2c(nn1C)N(c1c(C)cc(C)cc1C)CCC2 (stereo not shown) [Compound 5-40, (1-Methoxymethylpropyl)-[2-methyl-7-(2,4,6-trimethylphenyl)-4,5,6,7-tetrahydro-2H-pyrazolo[3,4-b]pyridin-3-yl]-amine]
37 | 104.2 to 106.4 | CO/N=C(\C)c1c2c(nn1C)N(c1c(C)cc(C)cc1C)CCC2 [Compound 6-4, 1-[2-Methyl-7-(2,4,6-trimethyl-phenyl)-4,5,6,7-tetrahydro-2H-pyrazolo[3,4-b]pyridin-3-yl]-ethanone O-methyl-oxime]
